In patent US20250295628A1 (priority 2022, published 2025):

Assay: Solid stability of compositions 1-11 and compounds 1A-11A: main component content over time under different conditions (Example 37, Table 32)
Type: physicochemical
Protocol: Compositions 1-11 and compounds 1A-11A were placed at environments of −25° C., 5±3° C., 25±2° C./60±5% RH, 40±2° C./75±5% RH, 60° C. for 0 d, 5 d and 10 d (d refers to day), respectively, and changes of the main component content (the main component content of 0 day was converted to 100%) were measured, the results are shown in Table 32.

[1] = 5 ± 3° C., 0 d (0 day content converted to 100%)
[2] = 25 ± 2° C./60 ± 5% RH, 0 d (0 day content converted to 100%)
[3] = 40 ± 2° C./75 ± 5% RH, 0 d (0 day content converted to 100%)
[4] = 60° C., 0 d (0 day content converted to 100%)
[5] = −25° C., 0 d (0 day content converted to 100%)

For `O=C([O-])C(CF)N(CC(O)C(O)C(O)C(O)CO)C(=S)[S][Na].[Na+]` (stereo not drawn) [Compound 1A], the main component content [1] was 100%, the main component content (5 ± 3° C., 5 d) was 99.5% and the main component content (5 ± 3° C., 10 d) was 99.1%. For the same compound, the main component content [2] was 100%, the main component content (25 ± 2° C./60 ± 5% RH, 5 d) was 97.3% and the main component content (25 ± 2° C./60 ± 5% RH, 10 d) was 92.1%. The main component content [3] was 100%, the main component content (40 ± 2° C./75 ± 5% RH, 5 d) was 83.5% and the main component content (40 ± 2° C./75 ± 5% RH, 10 d) was 81.5%. The main component content [4] was 100%, the main component content (60° C., 5 d) was 59.4% and the main component content (60° C., 10 d) was 58.7%. The main component content [5] was 100%, the main component content (−25° C., 5 d) was 100.2% and the main component content (−25° C., 10 d) was 100.1%.
Work on `CC(C)C(C(=O)[O-])N(CC(O)C(O)C(O)C(O)CO)C(=S)[S][Na].[Na+]` (stereo not drawn) [Compound 2A] yielded a main component content [1] of 100%, a main component content (5 ± 3° C., 5 d) of 99.5% and a main component content (5 ± 3° C., 10 d) of 98.1%. The main component content [2] was 100%, the main component content (25 ± 2° C./60 ± 5% RH, 5 d) was 91.4% and the main component content (25 ± 2° C./60 ± 5% RH, 10 d) was 82.5%. It also gave a main component content [3] of 100%, a main component content (40 ± 2° C./75 ± 5% RH, 5 d) of 94.1% and a main component content (40 ± 2° C./75 ± 5% RH, 10 d) of 90.1%. For the same compound, the main component content [4] was 100%, the main component content (60° C., 5 d) was 49.9% and the main component content (60° C., 10 d) was 48.8%. It also gave a main component content [5] of 100%, a main component content (−25° C., 5 d) of 100.2% and a main component content (−25° C., 10 d) of 99.8%.
In the case of `O=C([O-])C(CCSCO)N(CC(O)C(O)C(O)C(O)CO)C(=S)[S][Na].[Na+]` (stereo not drawn) [Compound 4A], the main component content [1] is reported as 100%, the main component content (5 ± 3° C., 5 d) is reported as 97.6% and the main component content (5 ± 3° C., 10 d) is reported as 95.3%. The main component content [2] was 100%, the main component content (25 ± 2° C./60 ± 5% RH, 5 d) was 92.8% and the main component content (25 ± 2° C./60 ± 5% RH, 10 d) was 91.7%. The main component content [3] was 100%, the main component content (40 ± 2° C./75 ± 5% RH, 5 d) was 83.4% and the main component content (40 ± 2° C./75 ± 5% RH, 10 d) was 80.8%. It also gave a main component content [4] of 100%, a main component content (60° C., 5 d) of 68.0% and a main component content (60° C., 10 d) of 64.7%. It also gave a main component content [5] of 100%, a main component content (−25° C., 5 d) of 100.2% and a main component content (−25° C., 10 d) of 100.5%.
In the case of `O=C([O-])CCC(C(=O)[O-])N(CC(O)C(O)C(O)C(O)CO)C(=S)[S][Na].[Na+].[Na+]` (stereo not drawn) [Compound 5A], the main component content [1] is reported as 100%, the main component content (5 ± 3° C., 5 d) is reported as 99.6% and the main component content (5 ± 3° C., 10 d) is reported as 98.7%. The main component content [2] was 100%, the main component content (25 ± 2° C./60 ± 5% RH, 5 d) was 97.8% and the main component content (25 ± 2° C./60 ± 5% RH, 10 d) was 95.7%. For the same compound, the main component content [3] was 100%, the main component content (40 ± 2° C./75 ± 5% RH, 5 d) was 97.9% and the main component content (40 ± 2° C./75 ± 5% RH, 10 d) was 91.8%. The main component content [4] was 100%, the main component content (60° C., 5 d) was 80.3% and the main component content (60° C., 10 d) was 78.7%. The main component content [5] was 100%, the main component content (−25° C., 5 d) was 100.7% and the main component content (−25° C., 10 d) was 101.1%.
Work on `O=C([O-])C(CC1CCCCC1)N(CC(O)C(O)C(O)C(O)CO)C(=S)[S][Na].[Na+]` (stereo not drawn) [Compound 6A] yielded a main component content [1] of 100%, a main component content (5 ± 3° C., 5 d) of 98.8% and a main component content (5 ± 3° C., 10 d) of 99.1%. For the same compound, the main component content [2] was 100%, the main component content (25 ± 2° C./60 ± 5% RH, 5 d) was 93.1% and the main component content (25 ± 2° C./60 ± 5% RH, 10 d) was 85.3%. It also gave a main component content [3] of 100%, a main component content (40 ± 2° C./75 ± 5% RH, 5 d) of 91.5% and a main component content (40 ± 2° C./75 ± 5% RH, 10 d) of 91.0%. It also gave a main component content [4] of 100%, a main component content (60° C., 5 d) of 60.4% and a main component content (60° C., 10 d) of 57.8%. The main component content [5] was 100%, the main component content (−25° C., 5 d) was 100.6% and the main component content (−25° C., 10 d) was 99.9%.
For `COc1ccc(CC(C(=O)[O-])N(CC(O)C(O)C(O)C(O)CO)C(=S)[S][Na])cc1.[Na+]` (stereo not drawn) [Compound 7A], the main component content [1] was 100%, the main component content (5 ± 3° C., 5 d) was 100.0% and the main component content (5 ± 3° C., 10 d) was 99.1%. The main component content [2] was 100%, the main component content (25 ± 2° C./60 ± 5% RH, 5 d) was 99.3% and the main component content (25 ± 2° C./60 ± 5% RH, 10 d) was 98.0%. It also gave a main component content [3] of 100%, a main component content (40 ± 2° C./75 ± 5% RH, 5 d) of 98.7% and a main component content (40 ± 2° C./75 ± 5% RH, 10 d) of 96.5%. For the same compound, the main component content [4] was 100%, the main component content (60° C., 5 d) was 80.2% and the main component content (60° C., 10 d) was 80.1%. It also gave a main component content [5] of 100%, a main component content (−25° C., 5 d) of 100.1% and a main component content (−25° C., 10 d) of 100.6%.
`O=C([O-])C(Cc1cccs1)N(CC(O)C(O)C(O)C(O)CO)C(=S)[S][Na].[Na+]` (stereo not drawn) [Compound 8A] gave a main component content [1] of 100%, a main component content (5 ± 3° C., 5 d) of 97.9% and a main component content (5 ± 3° C., 10 d) of 96.2%. The main component content [2] was 100%, the main component content (25 ± 2° C./60 ± 5% RH, 5 d) was 95.5% and the main component content (25 ± 2° C./60 ± 5% RH, 10 d) was 93.3%. The main component content [3] was 100%, the main component content (40 ± 2° C./75 ± 5% RH, 5 d) was 94.7% and the main component content (40 ± 2° C./75 ± 5% RH, 10 d) was 89.6%. The main component content [4] was 100%, the main component content (60° C., 5 d) was 80.4% and the main component content (60° C., 10 d) was 79.7%. The main component content [5] was 100%, the main component content (−25° C., 5 d) was 101.1% and the main component content (−25° C., 10 d) was 100.3%.
`O=C([O-])C(Cc1cncs1)N(CC(O)C(O)C(O)C(O)CO)C(=S)[S][Na].[Na+]` (stereo not drawn) [Compound 9A] gave a main component content [1] of 100%, a main component content (5 ± 3° C., 5 d) of 97.2% and a main component content (5 ± 3° C., 10 d) of 96.0%. The main component content [2] was 100%, the main component content (25 ± 2° C./60 ± 5% RH, 5 d) was 98.9% and the main component content (25 ± 2° C./60 ± 5% RH, 10 d) was 96.0%. It also gave a main component content [3] of 100%, a main component content (40 ± 2° C./75 ± 5% RH, 5 d) of 92.6% and a main component content (40 ± 2° C./75 ± 5% RH, 10 d) of 91.5%. It also gave a main component content [4] of 100%, a main component content (60° C., 5 d) of 84.5% and a main component content (60° C., 10 d) of 79.3%. The main component content [5] was 100%, the main component content (−25° C., 5 d) was 100.7% and the main component content (−25° C., 10 d) was 100.5%.
`O=C([O-])C(CO)N(CC(O)C(O)C(O)C(O)CO)C(=S)[S][K].[K+]` (stereo not drawn) [Compound 10A] showed a main component content [1] of 100%, a main component content (5 ± 3° C., 5 d) of 99.5% and a main component content (5 ± 3° C., 10 d) of 98.1%. For the same compound, the main component content [2] was 100%, the main component content (25 ± 2° C./60 ± 5% RH, 5 d) was 97.0% and the main component content (25 ± 2° C./60 ± 5% RH, 10 d) was 96.1%. For the same compound, the main component content [3] was 100%, the main component content (40 ± 2° C./75 ± 5% RH, 5 d) was 92.0% and the main component content (40 ± 2° C./75 ± 5% RH, 10 d) was 90.3%. For the same compound, the main component content [4] was 100%, the main component content (60° C., 5 d) was 82.0% and the main component content (60° C., 10 d) was 79.1%. The main component content [5] was 100%, the main component content (−25° C., 5 d) was 100.5% and the main component content (−25° C., 10 d) was 101.4%.
